# Results taken from ChEMBL document CHEMBL1201862, “PubChem BioAssay data set” (2004).
# Calls of active or inactive are those of the source.
# What was measured:
# [1] = inhibitors of intracellular T. cruzi replication, confirmation, NIH3T3 host cells, beta-gal luminescence (AID 2044); assay type: functional, cell-based;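 also: intracellular parasites grown in NIH/3T3 mouse fibroblasts as host cells; luminescent beta-galactosidase reporter signal from transgenic T. cruzi replicating inside host cells; inhibitors lower the luminescence signal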
# [2] = cytotoxicity toward NIH3T3 fibroblasts, dose response, counter-screen, cell-based, ATP luminescence, mouse fibroblasts (AID 2010); assay type: functional;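 also: cells exposed to compound for about 90 hours before reading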
# [3] = target: T1, Heat shock factor protein 1 (Mus musculus, UniProt P38532); test: HSF1 potentiators in luciferase reporter cells, confirmation, cell-based, NIH3T3, luminescence, dose retest (AID 435004); assay type: functional;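 also: stress induced by proteasome inhibitor MG132 added 30 min after compound; luciferase reporter driven by HSF1 response element in NIH3T3 cells; actives raise luminescence as potentiators of the MG132 stress response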
# T1 sequence (P38532 whole entry): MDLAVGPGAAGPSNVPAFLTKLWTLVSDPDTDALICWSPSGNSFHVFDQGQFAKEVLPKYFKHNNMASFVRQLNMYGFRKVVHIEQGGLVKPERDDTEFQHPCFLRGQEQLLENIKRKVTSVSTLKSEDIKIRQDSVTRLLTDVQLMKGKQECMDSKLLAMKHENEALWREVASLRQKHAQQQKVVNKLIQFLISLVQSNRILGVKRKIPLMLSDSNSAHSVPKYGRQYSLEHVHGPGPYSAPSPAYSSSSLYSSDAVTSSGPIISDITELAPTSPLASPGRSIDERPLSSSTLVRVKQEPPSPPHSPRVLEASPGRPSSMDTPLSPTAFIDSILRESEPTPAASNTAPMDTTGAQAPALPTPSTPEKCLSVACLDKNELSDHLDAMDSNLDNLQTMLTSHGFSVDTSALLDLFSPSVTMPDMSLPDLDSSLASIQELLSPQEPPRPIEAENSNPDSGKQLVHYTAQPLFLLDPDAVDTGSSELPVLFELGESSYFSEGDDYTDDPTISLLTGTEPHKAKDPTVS
# [4] = target: Glyceraldehyde-3-phosphate dehydrogenase (Homo sapiens, UniProt P04406)
# [5] = NIH-3T3 fibroblast cytotoxicity, dose response, cytotoxicity control, cell-based, fluorescence, Alamar Blue, secondary assay (AID 2327); assay type: functional;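 also: NIH-3T3 mouse fibroblasts cultured with fluconazole at 8 µg/mL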
# [6] = C. albicans growth with fluconazole, confirmation, fluorescence, retest (AID 2467); assay type: functional, cell-based
# [7] = test system: Streptococcus sp. 'group A'; test: growth inhibition of control SK(-) GAS strain, dose response, counter-screen for streptokinase expression inhibitor project, luminescence, kanamycin, BacTiterGlo, confirmation (AID 1900); assay type: functional, organism-based
# Streptokinase A = target: T2, Streptokinase A (Streptococcus pyogenes serotype M1, UniProt P10520); test: S. pyogenes streptokinase expression inhibitors, potency, dose response, plasminogen activation absorbance, OD405 (AID 1914); assay type: functional, Streptococcus pyogenes M1 GAS;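 also: secreted streptokinase activity via plasminogen activation per viability signal from cell pellet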
# T2 sequence (P10520 whole entry): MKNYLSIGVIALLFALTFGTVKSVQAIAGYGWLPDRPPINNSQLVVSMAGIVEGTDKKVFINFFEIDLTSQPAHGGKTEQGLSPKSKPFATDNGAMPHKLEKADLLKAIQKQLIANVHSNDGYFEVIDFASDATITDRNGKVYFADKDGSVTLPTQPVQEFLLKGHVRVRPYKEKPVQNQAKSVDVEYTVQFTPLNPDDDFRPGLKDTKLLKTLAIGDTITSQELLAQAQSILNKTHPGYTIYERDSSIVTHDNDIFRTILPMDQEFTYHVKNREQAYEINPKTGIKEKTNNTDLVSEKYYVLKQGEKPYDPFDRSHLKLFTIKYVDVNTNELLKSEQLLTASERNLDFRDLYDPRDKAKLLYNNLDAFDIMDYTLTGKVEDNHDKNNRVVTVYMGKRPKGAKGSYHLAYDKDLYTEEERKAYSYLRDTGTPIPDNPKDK
# Streptococcus = test: Group A Streptococcus viability loss, dose response, counter-screen for streptokinase expression inhibitor project, luminescence, BacTiterGlo (AID 1915); assay type: functional, organism-based;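 also: potency for reduction of bacterial viability or growth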
# [8] = inhibitors of firefly luciferase expression or activity, dose response, H4 neuroglioma cells, luminescence (AID 1990); assay type: functional, cell-based
# [9] = Luminescence Cell-Based Dose Response HTS to Identify Inhibitors of 5'UTR Stem-Loop Driven Prion Protein mRNA Translation in H4 Neuroglioblastoma Cells. [Related pubchem assays: 1827 (Project Summary), 1813 (Primary HTS)]; assay type: functional
# [10] = inhibitors of SNCA 5'UTR-driven reporter translation, confirmation, H4 neuroglioma cells, luminescence (AID 1988); assay type: functional, cell-based
# Cytochrome P450 3A4 = Cytochrome P450 3A4 (Homo sapiens, UniProt P08684);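 also: CYP3A4 tested as one member of a cytochrome P450 panel screen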
# P388/ADR = test: cells; assay type: functional; conditions: Mus musculus
# SN12K1 = test: cells; assay type: functional; conditions: Homo sapiens
# P388 = test: cells; assay type: functional; conditions: Mus musculus
# Paired box protein Pax-8 = Paired box protein Pax-8 (Homo sapiens, UniProt Q06710); test: inhibitors of PAX8-driven TPO luciferase reporter, dose response, RMG-I cells, cherry-pick (AID 687027); assay type: functional, cell-based;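 also: luciferase reporter driven by Pax8 target thyroperoxidase promoter measured by SteadyGlo luminescence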
# Chain of Paired box protein Pax-8 (Q06710 whole entry): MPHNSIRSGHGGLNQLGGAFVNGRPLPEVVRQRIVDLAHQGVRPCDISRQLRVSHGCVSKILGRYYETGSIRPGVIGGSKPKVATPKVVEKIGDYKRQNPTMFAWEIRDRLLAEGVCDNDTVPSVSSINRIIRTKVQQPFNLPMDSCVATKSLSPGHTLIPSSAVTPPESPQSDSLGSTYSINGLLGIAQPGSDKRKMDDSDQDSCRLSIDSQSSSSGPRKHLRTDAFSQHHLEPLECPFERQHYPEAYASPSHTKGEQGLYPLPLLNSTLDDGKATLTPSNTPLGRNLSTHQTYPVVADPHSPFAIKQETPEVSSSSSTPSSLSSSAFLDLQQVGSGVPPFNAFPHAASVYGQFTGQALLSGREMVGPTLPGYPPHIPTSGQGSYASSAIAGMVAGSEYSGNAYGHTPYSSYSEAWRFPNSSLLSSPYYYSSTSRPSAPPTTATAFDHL
# Chain of Glyceraldehyde-3-phosphate dehydrogenase (P04406 whole entry): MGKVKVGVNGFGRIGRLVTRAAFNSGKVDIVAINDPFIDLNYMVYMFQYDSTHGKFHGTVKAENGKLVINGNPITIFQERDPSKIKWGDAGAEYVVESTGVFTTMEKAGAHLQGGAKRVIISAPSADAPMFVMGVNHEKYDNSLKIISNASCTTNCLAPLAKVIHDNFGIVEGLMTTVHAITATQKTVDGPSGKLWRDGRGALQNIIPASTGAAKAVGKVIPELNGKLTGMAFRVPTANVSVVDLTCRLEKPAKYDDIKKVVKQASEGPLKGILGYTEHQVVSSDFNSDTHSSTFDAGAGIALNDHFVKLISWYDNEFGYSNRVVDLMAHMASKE
# Chain of Cytochrome P450 3A4 (P08684 whole entry): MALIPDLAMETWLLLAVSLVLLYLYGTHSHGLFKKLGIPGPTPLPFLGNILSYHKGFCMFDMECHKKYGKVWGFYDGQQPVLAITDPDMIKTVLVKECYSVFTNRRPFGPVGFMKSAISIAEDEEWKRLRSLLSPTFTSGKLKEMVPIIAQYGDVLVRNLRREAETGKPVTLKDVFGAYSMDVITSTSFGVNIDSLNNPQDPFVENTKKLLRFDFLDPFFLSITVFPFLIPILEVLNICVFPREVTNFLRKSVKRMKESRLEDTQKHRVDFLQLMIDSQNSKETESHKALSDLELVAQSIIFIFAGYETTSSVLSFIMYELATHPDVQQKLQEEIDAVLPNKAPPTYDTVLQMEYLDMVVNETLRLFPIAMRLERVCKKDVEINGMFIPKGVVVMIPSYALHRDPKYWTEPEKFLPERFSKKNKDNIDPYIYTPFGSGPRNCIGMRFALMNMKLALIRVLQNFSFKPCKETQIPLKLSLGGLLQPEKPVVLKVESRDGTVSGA
structure (smiles),measurement,setting,value
C=CCN(C(=O)CCc1ccccc1OC)c1nc(-c2ccc(S(C)(=O)=O)cc2)cs1,EC50,[1],1.93 µM (active)
same,EC50,[2],5.05 µM (active)
same,EC50,[3],> 260 µM (inactive)
O=C1CC(C(=O)Nc2ccc(O)c(C(=O)O)c2)C(c2ccccc2)O1 (stereo not given),IC50,[4],> 100 µM (not active)
CN(Cc1ccccc1)C(=O)c1cc(-c2ccc(Br)cc2)on1,EC50,[3],110 µM (active)
O=C(CSc1ccc(Cl)cc1)Nc1nnc(-c2ccco2)o1,EC50,[5],> 160 µM (inconclusive)
same,EC50,[6],3.02 µM (active)
CCC(C)c1ccc(C2C3=C(O)c4ccccc4C3=Nc3nc(N)nc(O)c32)cc1 (stereo not given),EC50,[7],3.11 µM (active)
same,EC50,Streptokinase A,> 50 µM (not active)
same,EC50,Streptococcus,8.57 µM (active)
COc1cccc(-c2nnc(SCc3nc4ccccc4[nH]3)n2N)c1,EC50,[3],> 260 µM (inactive)
O=C(/C=C/c1ccco1)Nc1nc(-c2ccccn2)cs1,EC50,[7],18 µM (active)
same,EC50,Streptokinase A,> 150 µM (not active)
same,EC50,[1],4.02 µM (active)
same,EC50,[2],11.6 µM (active)
same,EC50,Streptococcus,> 150 µM (not active)
CC(=O)Nc1ncnc2c1c(-c1ccc(Cl)cc1)nn2C(C)(C)C,EC50,[5],36.2 µM (active)
same,EC50,[8],11.4 µM (active)
same,EC50,[9],13.3 µM (active)
same,EC50,[10],10.2 µM (active)
same,EC50,[6],1.15 µM (active)
same,EC50,[1],0.14 µM (active)
same,EC50,[2],2.66 µM (active)
COc1ccc(C(=O)N2CC3(CC(c4ccc(Cl)cc4)=NO3)C[C@H]2C(=O)NCC(N)=O)cc1 (stereo not given in full),AC50,Cytochrome P450 3A4,31.6 µM (inconclusive)
O=C(CN1C(=O)NC(Cc2c[nH]c3ccccc23)C1=O)Nc1cccc(S(=O)(=O)N2CCOCC2)c1 (stereo not given),EC50,[3],> 260 µM (inactive)
O=C(O)c1ccc(-c2nc(-c3ccc(Cl)c(Cl)c3)cs2)cc1,EC50,[5],> 160 µM (inactive)
same,EC50,[7],3.54 µM (active)
same,EC50,[6],3.35 µM (active)
same,EC50,Streptococcus,6.62 µM (active)
COc1cccc(N2C(=O)C(Cl)=C(N3CCOCC3)C2=O)c1,IC50,[4],> 50 µM (inconclusive)
C[C@H]1CC(C)(C)C[C@@](OCCN2CCCCC2)(c2ccccc2)C1,AC50,Cytochrome P450 3A4,3.16 µM (inconclusive)
c1ccc(-c2csc3ncnc(N4CCc5ccccc5C4)c23)cc1,EC50,[7],5.31 µM (active)
same,EC50,Streptokinase A,4.83 µM (active)
same,EC50,Streptococcus,19.5 µM (active)
COc1cccc(C(=O)COC(=O)C(C)N2C(=O)C3C4C=CC(C4)C3C2=O)c1 (stereo not given),EC50,[3],> 260 µM (inactive)
Cc1ccc(-n2c(O)cc(=O)nc2SCC(=O)Nc2ccc3c4c(cccc24)CC3)cc1,EC50,[7],28.4 µM (active)
same,EC50,Streptokinase A,> 150 µM (not active)
same,EC50,Streptococcus,> 150 µM (not active)
FC(F)(F)c1cccc(NC(=S)N2CCCC2)c1,EC50,[7],> 150 µM (not active)
same,EC50,Streptokinase A,> 150 µM (not active)
same,EC50,Streptococcus,> 150 µM (not active)
O=c1c(-c2ccccc2)nc2cnc(Nc3ccccc3)nc2n1C[C@H]1CCCO1,AC50,Cytochrome P450 3A4,12.6 µM (inconclusive)
O=C(O)[C@@H]1[C@@H](C(=O)NCc2ccncc2)[C@@H]2C=C[C@@H]1O2,AC50,Cytochrome P450 3A4,3.98 µM (inconclusive)
Cc1ccc2c(O)nc(Nc3nc(C)cc(-c4ccccc4)n3)nc2c1,EC50,[7],7.26 µM (active)
same,EC50,Streptokinase A,> 150 µM (not active)
same,EC50,Streptococcus,5.49 µM (active)
CCn1nc(C)cc1C(=O)Sc1ccc(Cl)cc1Cl,EC50,[3],14.9 µM (active)
Cc1ccc(-c2nnc(-c3ccc(NC(=O)c4cccs4)cc3)o2)cc1,AC50,Cytochrome P450 3A4,20 µM (inconclusive)
N#Cc1ccccc1-c1cncnc1NCc1cccnc1,AC50,Cytochrome P450 3A4,0.2 µM (inconclusive)
COC(=O)c1cn(CCOc2ccc(C)cc2)c2ccccc12,EC50,[3],> 260 µM (inactive)
Cc1ccc(N2NC(=O)/C(=C/c3c(C)c(C#N)c4nc5ccccc5n4c3O)C2=O)cc1C,IC50,[4],> 100 µM (not active)
COC(=O)N1CCC2(CCCN(Cc3ccccc3OC)C2)CC1,AC50,Cytochrome P450 3A4,6.31 µM (inconclusive)
CC(C)[C@H](NC(N)=O)C(=O)NNC(=O)COc1cccc(C(F)(F)F)c1,EC50,[3],> 260 µM (inactive)
CCOC(=O)N1CCN(C(=O)c2cnc3n(c2=O)CCS3)CC1,EC50,[3],> 260 µM (inactive)
COc1cccc2c1C(=O)c1c(O)c3c(c(O)c1C2=O)C[C@@](O)(C(=O)CO)C[C@@H]3OC1CC(N2CCOCC2)C(O)C(C)O1 (stereo not given in full),GI50,P388/ADR,0.00136 µM (active)
same,GI50,SN12K1,0.00366 µM (active)
same,GI50,P388,0.0025 µM (active)
CC(=O)OC1CC2(O)C(CCC3(C)C(c4ccc(=O)oc4)CCC32O)C2(C)C1=CC(O)C1OC12 (stereo not given),GI50,P388/ADR,79.1 µM (inactive)
same,GI50,SN12K1,0.0424 µM (active)
same,GI50,P388,46.1 µM (inactive)
CCCCOc1ccc(-c2nc(/C=N/c3nccs3)c(O)o2)cc1,EC50,[3],> 260 µM (inactive)
CN(C)CCNC(=O)c1cccc2ccc(-c3ccc(O)cc3)nc12,GI50,SN12K1,0.637 µM (active)
C=C1C(=O)O[C@H]2[C@H]1[C@@H](OC(=O)C=C(C)C)CC1=C[C@@H](C[C@@]3(C)O[C@@H]23)OC1=O,GI50,SN12K1,6.46 µM (inactive)
same,GI50,P388,0.139 µM (active)
O=P1(c2ccccc2)Nc2ccccc2SSc2ccccc2N1,GI50,P388/ADR,7.45 µM (inactive)
same,GI50,SN12K1,15.3 µM (inactive)
same,GI50,P388,0.839 µM (active)
C=CCC(O[Si](C)(C)C(C)(C)C)c1cc(O[Si](C)(C)C(C)(C)C)ccc1OC (stereo not given),GI50,P388/ADR,> 100 µM (inactive)
same,GI50,SN12K1,> 100 µM (inactive)
same,GI50,P388,22.2 µM (inactive)
C=CCc1cccc(/C=N\N/C(N)=N/O)c1O,GI50,P388/ADR,0.78 µM (active)
same,GI50,SN12K1,2.01 µM (inactive)
same,GI50,P388,1.19 µM (inactive)
Cc1ccc2cc3cccc(C(=O)NCCN(C)C)c3nc2c1,GI50,P388/ADR,0.252 µM (active)
same,GI50,SN12K1,0.426 µM (active)
same,GI50,P388,0.257 µM (active)
COc1ccc(CN(C)C[C@H]2Oc3ccc(NC(=O)Nc4ccc5c(c4)OCO5)cc3CC(=O)N([C@H](C)CO)C[C@H]2C)cc1,AC50,Paired box protein Pax-8,62.3 µM (active)
C[C@@H]1CCCCO[C@H](CN(C)C(=O)c2ccccc2)[C@@H](C)CN([C@@H](C)CO)C(=O)c2cc(NC(=O)Nc3ccc(C(F)(F)F)cc3)ccc2O1,AC50,Paired box protein Pax-8,3.72 µM (active)
C[C@H](CO)N1C[C@H](C)[C@H](CN(C)Cc2ccc3c(c2)OCO3)OCCCC[C@H](C)Oc2ccc(NS(=O)(=O)c3ccc(Cl)cc3)cc2C1=O,AC50,Paired box protein Pax-8,9.86 µM (active)
CN1C[C@@H]2[C@H](c3ccccc31)[C@H](CO)N2Cc1ccccc1Cl,AC50,Paired box protein Pax-8,50.5 µM (active)
C[C@@H]1[C@@H]2[C@@H](C=C3C4CCC5Cc6nc7c(nc6C[C@@]5(C)C4C[C@H](O)[C@]32CO)CC2CCC3C4=C[C@H]5O[C@@]6(OC(C)(CO)C[C@@H]6O)[C@H](C)[C@@]5(O)[C@]4(C)[C@@H](O)CC3[C@]2(C)C7)O[C@]12CCC(C)(C)O2 (stereo not given in full),GI50,P388/ADR,0.0918 µM (active)
same,GI50,SN12K1,0.000365 µM (active)
same,GI50,P388,0.000365 µM (active)
COc1ccc(N[C@@H]2c3cc4c(cc3C(c3cc(OC)c(O)c(OC)c3)[C@H]3C(=O)OCC32)OCO4)cc1OC (stereo not given in full),GI50,P388/ADR,0.269 µM (active)
same,GI50,P388,< 0.01 µM (active)
COc1ccc(/N=C2/S/C(=C\c3ccc(C)s3)C(=O)N2CC(C)C)cc1,AC50,Cytochrome P450 3A4,5.01 µM (inconclusive)
CNC(=O)OCc1nc(SC2CCCCO2)n(C)c1COC(=O)NC (stereo not given),GI50,P388/ADR,> 100 µM (inactive)
same,GI50,SN12K1,> 100 µM (inactive)
same,GI50,P388,> 100 µM (inactive)
COc1ccc(C)cc1S(=O)(=O)Nc1cnc2ccccc2c1,IC50,[4],> 100 µM (not active)
